{"source": "patent US9775835B2", "about": "(priority 2012, dated 2017)", "key": {"[1]": {"test_system": "HIV (strain NL4-3)", "assay": "HIV cell based assay (Level 1 / Level 2 Screen; CFAR assay): 293T transfection, TZM-bl infection, luciferase", "parameters": "species or system HIV-1", "conditions": "for Anti-HIV bioactivity of hits and analogs: second round with analogs, FIGS. 12 A, B, C", "protocol": "Five hundred of the 1000 small molecule hits, having the highest binding affinity with the ASL's hypermodifications, were selected for screening at high concentration against HIV infected mammalian cells (FIG. 10). Briefly, toxicity was first assessed in 293T cells in 96-well plates (10^4 cells/well) by adding 50, 5 and 0.5 μM of small molecules in triplicate at each concentration. After two days, cells were assessed for poor growth versus control cells. Once the concentration of the small molecules at which the cells looked normal was established, these molecules were screened for anti-HIV activity through a transfection/infection protocol. An infectious molecular clone of HIV (strain NL4-3) was transfected into 293T cells using FuGene6 (Roche). After four hours, the cells were split into 96-well plates (10^4 cells/well) and the small molecules were added at the appropriate concentration in triplicate. After 48 hours of incubation of cells in the presence of the small molecules, virus-containing medium (50 μL) was removed from each well and transferred into a fresh 96-well plate containing TZM-bl cells for infection (10^4 cells/well). After 48 hours, the cells were assayed for luciferase expression. Controls were untransfected 293T cells and transfected cells without the small molecules added. Results from various small molecules with the best inhibition of HIV are shown in (FIG. 10). Active small molecules 2493, 9324, 8317, 2725, 3643, 2491, 12327, 14094, 12204, 12744, 12745, 12542, 18198, 18200, 8391, 6188, 16286 and 2712 have 80-95% inhibitory effect on the HIV propagation. These small molecules with bioactivity against HIV propagation are an example of some the hits further tested in a concentration-dependent screening.\nBioactive molecules selected in Level 1 Screen were tested using the cell based assay in a concentration (dose)-dependent manner for their ability to inhibit HIV propagation (FIG. 11). The HIV cell based assay experimental protocol described in Level 1 screen was used to conduct the Level 2 Screen. […] In addition to the concentration-dependent, cell based assay, the inhibitory activities of the active molecules identified in Screen Level 1 were also assessed using the MBS assay. This assay has been developed and standardized to mimic the unique properties characteristic of the HIV viral protein recruitment and preparation of the human host tRNA3^Lys as primer of reverse transcription. Thus, the cell-based assay and the “MBS” assay were used to confirm the mechanism of action of the hits against the functional interaction of htRNA3^Lys with HIV proteins. The MBS is a “mix and measure” assay that consists of the formation of a complex between the fluorescent peptide P6 and the fully modified anticodon stem and loop of htRNA3^Lys. The concentration of the small molecules was 150 μM i.e. 300 fold of that of P6. […] In the presence of various selected active molecules, inhibition of the complex between P6 and hASL3^Lys was observed (FIGS. 12 A, B and C). The results of these experiments allowed identification and concentration towards a smaller pool of active molecules.\nIn order to confirm the activity of the small molecules showing potential anti-HIV inhibition, a second round of testing using their analogs (˜20 analogs were chosen for each selected active small molecule) was initiated using the same cell based assay employed in Level 1 Screen and Level 2 Screen. […] The quality and structure of the small molecule hits and their respective analogs were confirmed by NMR and Liquid Chromatography coupled with Mass Spectrometry (LC-MS).\nDose response data of the active molecules were generated by running the biochemical and functional assays at varying concentration. The potency properties which is one of the characteristics that defines a hit, is evaluated based on the criteria that potency (IC50)<3 μM in the MBS assay and EC50<10 μM in the HIV cell based assay (See FIG. 19). […]"}, "[2]": {"target": "hASL3^Lys-mcm^5s^2U34;ms^2t^6A37;Ψ39", "assay": "Fluorescence quenching binding of P6 / NCp7 to fully modified hASL3^Lys", "parameters": "species or system human", "conditions": "FIGS. 5 and 6", "text": "(§1) The phage-display selection of peptides was completed (randomized 15 mers, and 16 mers with cysteines at two sites for the possible generation of Zn^+2 ‘knuckles’ structures reminiscent of the HIV protein, NCp7) against the fully modified anticodon stem and loop domain of htRNA3^Lys with 5-methoxycarbonylmethyl-2-thiouridine at position 34, 2-methylthio-N^6-threonylcarbamoyladenosine-37 and pseudouridine-39 (hASL3^Lys-mcm^5s^2U34;ms^2t^6A37;Ψ39) covalently attached to microtiter avidin-plates with biotin. In reiterative and competitive phage-display library selections, the two libraries yielded 20 recurring peptide sequences that had reasonable solubility among 155 sequenced clones (Table 2). The hASL3^Lys binding properties of the peptides were characterized using chemically synthesized peptides with an N-terminal fluorescent reporter. One strongly binding, highly specific peptide (P6) was selected. Its ability to mimic the binding of the natural HIV protein, NCp7, to modified htRNA3^Lys was validated. […] Footprinting of P6 on the modified hASL3^Lys by high resolution mass spectrometry indicated conclusively that the anticodon and 3′-adjacent side of the loop were protected (Graham et al., supra)."}, "[3]": {"target": "unmodified ASL3^Lys", "assay": "Fluorescence quenching binding of P6 / NCp7 to unmodified ASL3^Lys", "parameters": "species or system human", "conditions": "modification-dependency", "text": "as §1"}, "[4]": {"test_system": "hASL3^Lys", "assay": "Circular dichroism of NCp7 and P6 complexes with hASL3^Lys", "parameters": "species or system human", "conditions": "decrease in CD ellipticity with increasing amounts, FIG. 7"}, "[5]": {"test_system": "hASL3^Lys-mcm^5s^2U34;ms^2t^6A37;Ψ39", "assay": "Mechanism based secondary (MBS) assay: competition with fluorescent peptide P6 for hASL3^Lys", "format": "binding, human", "conditions": "complex formation in the absence of small molecules", "text": "In order to identify a set of small molecule ‘hits’, that inhibit viral recruitment or viral preparation of htRNA3^Lys, the inventors developed a microtiter plate-based fluorescence assay. This mechanism based secondary (MBS) assay uses selected peptides that best mimic HIV proteins in their binding to htRNA3^Lys. The present invention uses the above-mentioned MBS assay to identify small molecule bioactive hits against a host cell RNA interaction with HIV proteins critical to viral replication. These hits can now be optimized into a completely different class of HIV drug, one that is far less likely to elicit drug resistance. The present invention is exploiting affinity selected peptides as tools to investigate and understand RNA chemistry and structure, including naturally occurring modifications, as identity elements for HIV protein recognition of the human tRNA3^Lys.\nMBS assay is based on phage display selected peptides that mimic HIV proteins by binding with high affinity and specificity to only the portion of the htRNA3^Lys of interest, the hASL3^Lys (Graham et al., J. Mol. Biol. 2011, 410(4):698-715; Vendeix et al., J. Mol. Biol. 2012, 416(4):467-85). […] The MBS assay is readily amenable to thermodynamic and structural analyses and nucleotide and peptide amino acid changes for optimization. […]"}, "[6]": {"test_system": "HIV strains NLA3, HXB and JR-CSF", "assay": "HIV strain screening", "format": "cell-based", "conditions": "FIG. 13", "text": "Small molecules were also screened for their effectiveness against various HIV strains. For example, the effects of small molecules of interest on HIV strains NLA3, HXB and JR-CSF were studied. […] FIG. 13. Further, small molecules were screened for their effectiveness against other HIV drugs that have different modes of action. For example, various small molecules of interest in the initial screen were studied for their effectiveness relative to protease inhibitors (Saquinavir by Roche) and reverse-transciptase inhibitors (Nevirapine by Boehringer Ingelheim) against various strains, including tri-therapy resistant HIV strains. FIGS. 13 and 14. In one specific study, the effect of small molecules on cell culture HIV viral propagation was compared to no drug (by reviewing % Relative Luminescence Unit (RLU)). Small molecules were also compared to Saquinavir and Nevirapine in both standard HIV strain and Tri-therapy resistant HIV strains. FIG. 14."}, "[7]": {"conditions": "Human immunodeficiency virus 1, NL43, read-out: IC 50 (units)"}}, "note": "Like-named read-outs stand apart in the source and are kept apart here."}
{"molecule": "c1ccc(Nc2nc(Nc3ccccc3)nc(N3CCNCC3)n2)cc1", "note": "[Compound 8391-6, N^2,N^4-diphenyl-6-(piperazin-1-yl)-1,3,5-triazine-2,4-diamine]", "values": [{"measurement": "IC50", "setting": "[1]; [7]", "value": 5.3, "unit": "µM"}]}
{"molecule": "NS(=O)(=O)c1cccc(NC(=O)Nc2ccc(Cl)c(Cl)c2)c1", "note": "[Compound 2491, 3-(3-(3,4-dichlorophenyl)ureido)benzenesulfon-amide]", "values": [{"measurement": "IC50", "setting": "[1]; Human immunodeficiency virus 1, NL43, other small molecule table, assay not given, values lie in the CFAR range of b151, read-out: IC 50", "value": 75, "unit": "µM"}]}
{"molecule": "O=[N+]([O-])c1cccc(Nc2nc(O)nc(N3CCCCC3)n2)c1", "note": "[Compound 8391-5, 4-(3-nitrophenylamino)-6-(piperidin-1-yl)-1,3,5-triazin-2-ol]", "values": [{"measurement": "Anti-HIV bioactivity of hits and analogs", "setting": "[1]", "value": "showed potential anti-HIV inhibition"}]}
{"molecule": "COc1cc2c(cc1OC)C1=C(C#N)CC/C(=N\\C(=O)c3ccco3)N1CC2", "note": "[Compound 18200-2, (E)-N-(1-cyano-9,10-dimethoxy-6,7-dihydro-2H-pyrido[2,1-a]isoquinolin-4(3H)-ylidene)furan-2-carboxamide]", "values": [{"measurement": "Anti-HIV bioactivity of hits and analogs", "setting": "[1]", "value": "some of the most bioactive inhibitors"}]}
{"molecule": "CC(C)c1ccc(OCC(=O)N2C(C)CCCC2C)c(Br)c1", "note": "(stereo not shown) [Compound 1668-1, 2-(2-bromo-4-isopropylphenoxy)-1-(2,6-dimethylpiperidin-1-yl)ethanone]", "values": [{"measurement": "IC50", "setting": "[1]; [7]", "value": 34, "unit": "µM"}]}
{"molecule": "CC1(C)CC(NC(=O)COc2ccc3ccccc3c2Br)CC(C)(C)N1", "note": "[Compound 1668-17, 2-(1-bromonapthalen-2-yloxy)-N-(2,2,6,6-tetramethylpiperidin-4-yl)acetamide]", "values": [{"measurement": "Anti-HIV bioactivity of hits and analogs", "setting": "[1]", "value": "some of the most bioactive inhibitors"}]}
{"molecule": "RVTHHAFLGAHRTVG [Compound P6]", "values": [{"measurement": "Kd", "setting": "[2]", "value": "0.45 ± 0.05", "unit": "µM"}, {"measurement": "Kd with unmodified ASL3^Lys", "setting": "[3]", "value": "incalculable"}, {"measurement": "Effect on hASL3^Lys structure by circular dichroism", "setting": "[4]", "value": "denature the hASL3^Lys structure"}, {"measurement": "Quenching of the fluorescence of the fluorescein-tagged P6 by hASL3^Lys", "setting": "[5]", "value": "~80", "unit": "%"}]}
{"molecule": "COc1cc2c(cc1OC)C1=C(C#N)CCC(=O)N1CC2", "note": "[Compound 18200-3, 9,10-dimethoxy-4-oxo-3,4,6,7-tetrahydro-2H-pyrido[2,1-a]isoquinoline-1-carbonitrile]", "values": [{"measurement": "Anti-HIV bioactivity of hits and analogs", "setting": "[1]", "value": "some of the most bioactive inhibitors"}]}
{"molecule": "Cc1cc(NC(=O)C(=O)NC2CC(C)(C)NC(C)(C)C2)ccc1Br", "note": "[Compound 1668-18, N^1-(4-bromo-3-methylphenyl)-N^2-(2,2,6,6-tetramethylpiperidin-4-yl)oxalimide]", "values": [{"measurement": "Anti-HIV bioactivity of hits and analogs", "setting": "[1]", "value": "some of the most bioactive inhibitors"}, {"measurement": "Inhibiting infection of HIV strains relative to no addition of drug", "setting": "[6]", "value": "particularly effective"}]}
{"molecule": "CC1CCCC(C)N1C(=O)COc1ccc(C(C)(C)C)cc1Br", "note": "(stereo not shown) [Compound 1668-12, 2-(2-bromo-4-tert-butylphenoxy)-1-(2,6-dimethylpiperidin-1-yl)ethanone]", "values": [{"measurement": "Anti-HIV bioactivity of hits and analogs", "setting": "[1]", "value": "showed potential anti-HIV inhibition"}]}
{"molecule": "COc1cc2c(cc1OC)C1=C(C#N)CC/C(=N\\C(=O)c3ccc(Cl)cc3)N1CC2", "note": "[Compound 18200-4, (E)-4-chloro-N-(1-cyano-9,10-dimethoxy-6,7-dihydro-2H-pyrido[2,1-a]isoquinolin-4(3H)-ylidene)benzamide]", "values": [{"measurement": "IC50", "setting": "[1]; Human immunodeficiency virus 1, NL43, isoquinoline table, assay not given, value lies in the CFAR range of b151, read-out: IC 50", "value": 14, "unit": "µM"}]}
{"molecule": "COCCNC(=O)c1ccc2c(=O)n(CCC3=CCCCC3)c(=S)[nH]c2c1", "note": "[Compound 6188-1, 3-(2-cyclohexenylethyl)-N-(2-methoxyethyl)-4-oxo-2-thioxo-1,2,3,4-tetrahydroquinazoline-7-carboxamide]", "values": [{"measurement": "IC50", "setting": "[1]; Human immunodeficiency virus 1, NL43, quinazoline table, assay not given, value lies in the CFAR range of b151, read-out: IC50", "value": 3.3, "unit": "µM"}]}
